Laboratory results reported in PMC5599305 (The pharmacogenomics journal, 2017).

Key:
Assay type in all cases: cell-based
[1] = target: T1, human α4β2 nicotinic receptor, 3:2 (α4:β2) stoichiometry; (α4)3(β2)2 (Homo sapiens, UniProt P17787+P43681); assay: two-electrode voltage clamp, Xenopus oocytes; details: agonist
[2] = target: T1, human α4β2 nicotinic receptor, 3:2 (α4:β2) stoichiometry; (α4)3(β2)2; assay: two-electrode voltage clamp, Xenopus oocytes, direct activation; details: 200 μM compound alone; weak agonism
[3] = target: human α4β2 nicotinic receptor, 2:3 stoichiometry; (α4)2(β2)3 (Homo sapiens, UniProt P17787+P43681); assay: as above; details: 200 μM compound alone; weak agonism
Sequence of human α4β2 nicotinic receptor, 2:3 stoichiometry; (α4)2(β2)3 (P43681 27-627): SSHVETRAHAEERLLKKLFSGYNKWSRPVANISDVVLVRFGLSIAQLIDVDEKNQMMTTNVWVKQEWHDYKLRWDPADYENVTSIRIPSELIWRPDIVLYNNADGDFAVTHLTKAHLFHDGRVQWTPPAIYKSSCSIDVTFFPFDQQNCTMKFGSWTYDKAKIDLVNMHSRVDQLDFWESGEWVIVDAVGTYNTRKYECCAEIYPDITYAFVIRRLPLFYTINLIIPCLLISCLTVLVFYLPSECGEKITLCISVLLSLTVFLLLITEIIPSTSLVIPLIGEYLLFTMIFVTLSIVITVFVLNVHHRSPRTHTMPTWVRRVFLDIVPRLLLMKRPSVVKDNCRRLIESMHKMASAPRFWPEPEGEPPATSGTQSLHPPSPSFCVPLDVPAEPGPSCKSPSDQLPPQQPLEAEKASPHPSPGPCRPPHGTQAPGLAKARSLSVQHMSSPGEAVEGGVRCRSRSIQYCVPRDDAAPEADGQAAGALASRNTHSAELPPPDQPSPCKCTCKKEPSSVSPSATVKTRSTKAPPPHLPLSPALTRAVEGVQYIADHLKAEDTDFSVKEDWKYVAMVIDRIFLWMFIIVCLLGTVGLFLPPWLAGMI
Sequence of human α4β2 nicotinic receptor, 2:3 stoichiometry; (α4)2(β2)3 (P17787 26-502): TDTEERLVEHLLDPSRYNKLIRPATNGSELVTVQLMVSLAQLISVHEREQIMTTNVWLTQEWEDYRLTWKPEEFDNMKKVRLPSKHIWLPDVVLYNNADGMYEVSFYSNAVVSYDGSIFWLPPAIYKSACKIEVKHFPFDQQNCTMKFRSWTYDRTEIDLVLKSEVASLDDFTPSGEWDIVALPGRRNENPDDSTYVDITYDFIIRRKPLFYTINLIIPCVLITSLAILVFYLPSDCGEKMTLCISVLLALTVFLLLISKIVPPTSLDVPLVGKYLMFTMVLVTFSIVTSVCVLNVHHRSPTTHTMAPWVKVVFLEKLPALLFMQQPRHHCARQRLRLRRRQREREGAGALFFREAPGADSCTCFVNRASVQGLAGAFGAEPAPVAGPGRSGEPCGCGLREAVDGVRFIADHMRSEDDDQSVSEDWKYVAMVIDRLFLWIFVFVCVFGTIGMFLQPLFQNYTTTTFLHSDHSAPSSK

T1 sequence (P43681 27-627): as the sequence (P43681 27-627) above
T1 sequence (P17787 26-502): as the sequence (P17787 26-502) above

CC(=O)OCC[N+](C)(C)C [acetylcholine]
EC3 [1]: ~ 1 μM

C[N@@+]1([O-])CCC[C@H]1c1cccnc1 [trans-nicotine-N-oxide]
relative peak response, % of 1 mM ACh response, at 200 μM [2]: 1.7 ± 0.3% | relative peak response, % of saturating ACh response, at 200 μM [3]: 5.7 ± 1.1%
